*1 amine or outer side, *2 acyl side, *3 side chain or, on linkers, in order; H or OH if unused. Where a SMILES comes first, the peptide text is derived from it. Bridges are numbered along the chain shown (N, C = ends). [ ]: non-standard residue; d: D form. The star is where a group is joined. hPhe(3-Cl-4-CF3) = N[C@@H](CCc1ccc(C(F)(F)F)c(Cl)c1)C(=O)O; NPrPhe(4-CF3) = CCCN[C@@H](Cc1ccc(C(F)(F)F)cc1)C(=O)O; NEtPhe(4-CF3) = CCN[C@@H](Cc1ccc(C(F)(F)F)cc1)C(=O)O; Abu(4,4,4-F3) = N[C@@H](CC(F)(F)F)C(=O)O; X2 = C[C@@H]1CN([*:1])[C@@H]1C(=O)[*:2]; NMeGly(cPent) = CN[C@H](C(=O)O)C1CCCC1; X9 = CC1(C)CN([*:1])[C@@H]1C(=O)[*:2]; Aze(3S-Me) = C[C@H]1CN[C@@H]1C(=O)O; NMeF = CN[C@@H](Cc1ccccc1)C(=O)O; NMeD = CN[C@@H](CC(=O)O)C(=O)O; NMeL = CN[C@@H](CC(C)C)C(=O)O; hPip = O=C(O)[C@@H]1CCCCCN1; Pip = O=C(O)[C@@H]1CCCCN1; Morpholide = C1CN(*)CCO1; Ac5c = NC1(C(=O)O)CCCC1; Aze = O=C(O)[C@@H]1CCN1; Abu = CC[C@H](N)C(=O)O; Ac3c = NC1(C(=O)O)CC1; Aib = CC(C)(N)C(=O)O; NEtG = CCNCC(=O)O; Sar = CNCC(=O)O
How the values were obtained:
[1] = target: GDP-bound KRAS wild-type protein (Homo sapiens, UniProt P01116); assay: Binding to KRAS by surface plasmon resonance (SPR), dissociation constant KD; conditions: 1:1 binding model
Sequence of GDP-bound KRAS wild-type protein (P01116 1-188 isoform P01116-2): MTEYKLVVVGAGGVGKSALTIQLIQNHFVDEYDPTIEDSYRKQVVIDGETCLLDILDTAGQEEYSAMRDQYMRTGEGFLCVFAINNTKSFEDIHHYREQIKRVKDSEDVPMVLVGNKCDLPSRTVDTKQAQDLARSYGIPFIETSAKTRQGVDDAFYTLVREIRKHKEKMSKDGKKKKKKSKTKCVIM
Description: Surface plasmon resonance was used to analyze the binding affinity of compounds for KRAS, NRAS, and HRAS. The apparatus used was Biacore 8K, 8K+, or T200 (GE Healthcare), and the running buffer used was HBS (10 mM HEPES-NaOH, 150 mM NaCl, pH 7.4) containing 1 mM DTT, 10 mM MgCl2, 0.01% Tween 20, 10 µM GDP, and 4% DMSO.
Biotinylated Avi-tag fusion KRAS, NRAS, and HRAS proteins were expressed in E. coli BL21 (DE3) strains, and after cells were homogenized, they were purified using Streptavidin Mutein Matrix and Superdex 75. After purification, GDP-loaded KRAS, NRAS, and HRAS proteins were immobilized on the surface of Sensor Chip CAP (Cytiva) coated with Biotin CAPture Reagent in an immobilization amount of about 100 to 300 RU. Binding of each compound was evaluated by the Single Cycle Kinetics method, and a running buffer or a compound solution was added to the RAS protein non-immobilized surface and the immobilized surface to obtain a binding response. The flow rate was set to 100 µL/min, and in the compound-adding cycle, compound solutions having different concentrations were intermittently added for 75 seconds each, starting from a low concentration. […] In the blank cycle, a running buffer was intermittently added and not the compound solution. The Biotin CAPture Reagent and RAS proteins were immobilized for each cycle, and at the end of each cycle, the sensor chip was regenerated by the regeneration solution appended to the Biotin CAPture Kit (Cytiva). Measurement was carried out at 30°C.
The resulting sensorgram was subjected to curve fitting based on a 1:1 binding model on Biacore Insight Evaluation Software or T200 Evaluation Software, and thereby the dissociation constant KD of each compound with respect to KRAS, NRAS, and HRAS was determined. […] Blank indicates a compound from which the KD value with respect to NRAS or HRAS was not obtained.

[2] = target: GDP-bound NRAS wild-type protein (Homo sapiens, UniProt P01111); assay: Binding to NRAS by surface plasmon resonance (SPR), KD and KD ratio to KRAS; conditions: ratio of KD for GDP-bound NRAS wild-type protein to KD for KRAS
Sequence of GDP-bound NRAS wild-type protein (P01111 whole entry): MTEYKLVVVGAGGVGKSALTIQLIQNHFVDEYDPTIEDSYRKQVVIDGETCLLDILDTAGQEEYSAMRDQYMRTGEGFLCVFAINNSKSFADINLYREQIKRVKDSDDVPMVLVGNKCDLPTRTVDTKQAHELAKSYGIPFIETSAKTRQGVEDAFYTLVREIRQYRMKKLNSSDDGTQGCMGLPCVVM
In short: (§1)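 Biotinylated GDP-bound RAS was captured at about 100–300 RU. Running buffer: HBS pH 7.4, 10 mM MgCl2, 10 µM GDP, 1 mM DTT, 0.01% Tween 20, 4% DMSO.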

HRAS wild-type protein = HRAS wild-type protein (Homo sapiens, UniProt P01112); assay: Binding to HRAS by surface plasmon resonance (SPR), KD and KD ratio to KRAS; conditions: ratio of KD for HRAS wild-type protein to KD for KRAS
Sequence of HRAS wild-type protein (P01112 whole entry): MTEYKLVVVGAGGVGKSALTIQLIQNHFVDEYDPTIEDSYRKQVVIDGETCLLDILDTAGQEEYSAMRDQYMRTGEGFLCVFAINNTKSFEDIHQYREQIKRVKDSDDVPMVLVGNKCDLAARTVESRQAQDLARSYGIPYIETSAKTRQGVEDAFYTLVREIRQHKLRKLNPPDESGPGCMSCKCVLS
In short: as §1

[3] = tested on: human lung cancer strain NCI-H441; type: cell-based
In short: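 Step one: dispense the test compound in serial DMSO dilutions. Step three: add the reagent and measure […].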

SMILES	Kd [1] [nM]	IC50 [3] [nM]	NRAS /KRAS [2]	HRAS /KRAS (HRAS wild-type protein)
CCCN1C(=O)[C@@H]2CCN2C(=O)[C@H](Cc2ccccc2)N(C)C(=O)[C@H]([C@@H](C)CC)NC(=O)[C@H](CC(C)C)N(C)C(=O)C[C@@H](C(=O)N2CCOCC2)N(C)C(=O)[C@H](C2CCCC2)N(C)C(=O)C2(CCCC2)NC(=O)[C@@H]2CCCN2C(=O)[C@H](CCc2ccc(C(F)(F)F)c(Cl)c2)NC(=O)CN(C)C(=O)[C@@H]1Cc1ccc(C(F)(F)F)cc1 [PP0209] ([NMeL]I[NMeF][Aze][NPrPhe(4-CF3)][Sar][hPhe(3-Cl-4-CF3)]P[Ac5c][NMeGly(cPent)][NMeD]-Morpholide; lactam N-11)	110	569	C (A compound having a KD ratio of 0.1 or more and less than 3 is denoted as C)	C (A compound having a KD ratio of 0.1 or more and less than 3 is denoted as C)
CCCN1C(=O)CN(C)C(=O)CN(CC)C(=O)[C@H]([C@@H](C)CC)NC(=O)[C@H](CC(C)C)N(C)C(=O)C[C@@H](C(=O)N2CCOCC2)N(C)C(=O)[C@H](C2CCCC2)N(C)C(=O)C2(CCCC2)NC(=O)[C@@H]2CCCCN2C(=O)[C@H](CCc2ccc(C(F)(F)F)c(Cl)c2)NC(=O)CN(C)C(=O)[C@@H]1Cc1ccc(C(F)(F)F)cc1 [PP0297] ([NMeL]I[NEtG][Sar][NPrPhe(4-CF3)][Sar][hPhe(3-Cl-4-CF3)][Pip][Ac5c][NMeGly(cPent)][NMeD]-Morpholide; lactam N-11)	2.3	74.3	B (a compound having 3 or more and less than 10 is denoted as B)	C (A compound having a KD ratio of 0.1 or more and less than 3 is denoted as C)
CCCN1C(=O)CN(C)C(=O)[C@@H]2CCN2C(=O)[C@H]([C@@H](C)CC)NC(=O)[C@@H]2CCCCCN2C(=O)C[C@@H](C(=O)N2CCOCC2)N(C)C(=O)[C@H](C2CCCC2)N(C)C(=O)C2(CCCC2)NC(=O)[C@@H]2CCCN2C(=O)[C@H](CCc2ccc(C(F)(F)F)c(Cl)c2)NC(=O)CN(C)C(=O)[C@@H]1Cc1ccc(C(F)(F)F)cc1 [PP0302] ([hPip]I[Aze][Sar][NPrPhe(4-CF3)][Sar][hPhe(3-Cl-4-CF3)]P[Ac5c][NMeGly(cPent)][NMeD]-Morpholide; lactam N-11)	1.6	126	B (a compound having 3 or more and less than 10 is denoted as B)	C (A compound having a KD ratio of 0.1 or more and less than 3 is denoted as C)
CCCN1C(=O)CN(C)C(=O)[C@@H]2CCN2C(=O)[C@H](CC)NC(=O)[C@H](CC(C)C)N(C)C(=O)C[C@@H](C(=O)N2CCOCC2)N(C)C(=O)[C@H](C2CCCC2)N(C)C(=O)C2(CCCC2)NC(=O)[C@@H]2CCCN2C(=O)[C@H](CCc2ccc(C(F)(F)F)c(Cl)c2)NC(=O)CN(C)C(=O)[C@@H]1Cc1ccc(C(F)(F)F)cc1 [PP0303] ([NMeL][Abu][Aze][Sar][NPrPhe(4-CF3)][Sar][hPhe(3-Cl-4-CF3)]P[Ac5c][NMeGly(cPent)][NMeD]-Morpholide; lactam N-11)	4	349	B (a compound having 3 or more and less than 10 is denoted as B)	B (a compound having 3 or more and less than 10 is denoted as B)
CCCN1C(=O)CN(C)C(=O)[C@@H]2CCN2C(=O)[C@H](CC(F)(F)F)NC(=O)[C@H](CC(C)C)N(C)C(=O)C[C@@H](C(=O)N2CCOCC2)N(C)C(=O)[C@H](C2CCCC2)N(C)C(=O)C2(CCCC2)NC(=O)[C@@H]2CCCN2C(=O)[C@H](CCc2ccc(C(F)(F)F)c(Cl)c2)NC(=O)CN(C)C(=O)[C@@H]1Cc1ccc(C(F)(F)F)cc1 [PP0304] ([NMeL][Abu(4,4,4-F3)][Aze][Sar][NPrPhe(4-CF3)][Sar][hPhe(3-Cl-4-CF3)]P[Ac5c][NMeGly(cPent)][NMeD]-Morpholide; lactam N-11)	1.9	112	B (a compound having 3 or more and less than 10 is denoted as B)	B (a compound having 3 or more and less than 10 is denoted as B)

Molecules with a lower Kd [1], results first:

Kd [1] [nM]	IC50 [3] [nM]	SMILES	NRAS /KRAS [2]	HRAS /KRAS (HRAS wild-type protein)
0.49	49.9	CC[C@H](C)[C@@H]1NC(=O)[C@H](CC(C)C)N(C)C(=O)C[C@@H](C(=O)N2CCOCC2)N(C)C(=O)[C@H](C2CCCC2)N(C)C(=O)C2(CC2)NC(=O)[C@@H]2CCCN2C(=O)[C@H](CCc2ccc(C(F)(F)F)c(Cl)c2)NC(=O)CN(C)C(=O)[C@H](Cc2ccc(C(F)(F)F)cc2)N(CC)C(=O)CN(C)C(=O)CN(C)C1=O [PP0234] ([NMeL]I[Sar][Sar][NEtPhe(4-CF3)][Sar][hPhe(3-Cl-4-CF3)]P[Ac3c][NMeGly(cPent)][NMeD]-Morpholide; lactam N-11)	B (a compound having 3 or more and less than 10 is denoted as B)	C (A compound having a KD ratio of 0.1 or more and less than 3 is denoted as C)
0.15	4.5	CC[C@H](C)[C@@H]1NC(=O)[C@H](CC(C)C)N(C)C(=O)C[C@@H](C(=O)N2CCOCC2)N(C)C(=O)[C@H](C2CCCC2)N(C)C(=O)C(C)(C)NC(=O)[C@@H]2CCCN2C(=O)[C@H](CCc2ccc(C(F)(F)F)c(Cl)c2)NC(=O)CN(C)C(=O)[C@H](Cc2ccc(C(F)(F)F)cc2)N(CC)C(=O)CN(C)C(=O)CN(C)C1=O [PP0235] ([NMeL]I[Sar][Sar][NEtPhe(4-CF3)][Sar][hPhe(3-Cl-4-CF3)]P[Aib][NMeGly(cPent)][NMeD]-Morpholide; lactam N-11)	B (a compound having 3 or more and less than 10 is denoted as B)	C (A compound having a KD ratio of 0.1 or more and less than 3 is denoted as C)
1.4	30.8	CCCN1C(=O)CN(C)C(=O)[C@@H]2[C@H](C)CN2C(=O)[C@H]([C@@H](C)CC)NC(=O)[C@H](CC(C)C)N(C)C(=O)C[C@@H](C(=O)N2CCOCC2)N(C)C(=O)[C@H](C2CCCC2)N(C)C(=O)C2(CCCC2)NC(=O)[C@@H]2CCCN2C(=O)[C@H](CCc2ccc(C(F)(F)F)c(Cl)c2)NC(=O)CN(C)C(=O)[C@@H]1Cc1ccc(C(F)(F)F)cc1 [PP0257] ([NMeL]I[X2][Sar][NPrPhe(4-CF3)][Sar][hPhe(3-Cl-4-CF3)]P[Ac5c][NMeGly(cPent)][NMeD]-Morpholide; lactam N-11)	B (a compound having 3 or more and less than 10 is denoted as B)	B (a compound having 3 or more and less than 10 is denoted as B)
0.52	11.3	CCCN1C(=O)CN(C)C(=O)[C@@H]2[C@@H](C)CN2C(=O)[C@H]([C@@H](C)CC)NC(=O)[C@H](CC(C)C)N(C)C(=O)C[C@@H](C(=O)N2CCOCC2)N(C)C(=O)[C@H](C2CCCC2)N(C)C(=O)C2(CCCC2)NC(=O)[C@@H]2CCCN2C(=O)[C@H](CCc2ccc(C(F)(F)F)c(Cl)c2)NC(=O)CN(C)C(=O)[C@@H]1Cc1ccc(C(F)(F)F)cc1 [PP0258] ([NMeL]I[Aze(3S-Me)][Sar][NPrPhe(4-CF3)][Sar][hPhe(3-Cl-4-CF3)]P[Ac5c][NMeGly(cPent)][NMeD]-Morpholide; lactam N-11)	B (a compound having 3 or more and less than 10 is denoted as B)	C (A compound having a KD ratio of 0.1 or more and less than 3 is denoted as C)
0.53	6.7	CCCN1C(=O)[C@@H]2CCN2C(=O)[C@H]2N(CC2(C)C)C(=O)[C@H]([C@@H](C)CC)NC(=O)[C@H](CC(C)C)N(C)C(=O)C[C@@H](C(=O)N2CCOCC2)N(C)C(=O)[C@H](C2CCCC2)N(C)C(=O)C2(CCCC2)NC(=O)[C@@H]2CCCN2C(=O)[C@H](CCc2ccc(C(F)(F)F)c(Cl)c2)NC(=O)CN(C)C(=O)[C@@H]1Cc1ccc(C(F)(F)F)cc1 [PP0277] ([NMeL]I[X9][Aze][NPrPhe(4-CF3)][Sar][hPhe(3-Cl-4-CF3)]P[Ac5c][NMeGly(cPent)][NMeD]-Morpholide; lactam N-11)	C (A compound having a KD ratio of 0.1 or more and less than 3 is denoted as C)	C (A compound having a KD ratio of 0.1 or more and less than 3 is denoted as C)

— patent EP4603105A1, “PHARMACEUTICAL COMPOSITION CONTAINING CYCLIC COMPOUND HAVING SELECTIVE KRAS INHIBITORY EFFECT AGAINST HRAS AND NRAS” (CHUGAI SEIYAKU KABUSHIKI KAISHA, priority 2022, dated 2024)
